# Data published in patent US9963442B2, “Pyridones as herbicides” (E I DU PONT DE NEMOURS AND COMPANY, priority 2014, dated 2018).
# Columns and labels:
# Format in all cases: in vivo
# [1] = system: rice (Oryza sativa); assay: Test B flooded paddy test; design: key: 0 = no effect, 100 = complete control; conditions: Flood, 250 g ai/ha applied to paddy water at 2-leaf stage; visually evaluated after 13 to 15 days; scale 0 (no effect) to 100 (complete control)
# Summary of the method: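 2-leaf plants; flood 3 cm over soil; compound into paddy water; depth held. Greenhouse 13–15 d. Visual rating vs controls, 0 (no effect) to 100 (complete control); dash = not tested.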
# [2] = system: oilseed rape (Brassica napus); assay: Test C preemergence; conditions: scale 0 to 100, 0 is no effect, 100 is complete control
# Text: (§1) Seeds of plant species selected from blackgrass (Alopecurus myosuroides), Italian ryegrass (Lolium multiflorum), winter wheat (Triticum aestivum), galium (catchweed bedstraw, Galium aparine), corn (Zea mays), large (Lg) crabgrass (Digitaria sanguinalis), giant foxtail (Setaria faberii), johnsongrass (Sorghum halepense), lambsquarters (Chenopodium album), morningglory (Ipomoea coccinea), yellow nutsedge (Cyperus esculentus), pigweed (Amaranthus retroflexus), ragweed (common ragweed, Ambrosia elatior), soybean (Glycine max), barnyardgrass (Echinochloa crus-galli), oilseed rape (Brassica napus), waterhemp (common waterhemp, Amaranthus rudis), and velvetleaf (Abutilon theophrasti) were planted into a blend of loam soil and sand and treated preemergence with test chemicals formulated in a non-phytotoxic solvent mixture which included a surfactant. At the same time, plants selected from these crop and weed species and also chickweed (common chickweed, Stellaria media), kochia (Kochia scoparia), and wild oat (Avena fatua), were planted in pots containing Sunshine Redi-Earth® planting medium comprising spaghnum peat moss, vermiculite, starter nutrients and dolomitic limestone and treated with postemergence applications of test chemicals formulated in the same manner. Plants ranged in height from 2 to 18 cm (1- to 4-leaf stage) for postemergence treatments. Treated plants and controls were maintained in a greenhouse for 13 to 15 days, after which time all species were compared to controls and visually evaluated. Plant response ratings, summarized in Table C, are based on a scale of 0 to 100 where 0 is no effect and 100 is complete control. A dash (-) response means no test result.
# [3] = system: morningglory (Ipomoea coccinea); assay: Test C preemergence; conditions: scale 0 to 100, 0 is no effect, 100 is complete control
# Text: as §1
# [4] = system: pigweed (Amaranthus retroflexus); assay: Test C preemergence; conditions: scale 0 to 100, 0 is no effect, 100 is complete control
# Text: as §1
# [5] = system: velvetleaf (Abutilon theophrasti); assay: Test C preemergence; conditions: scale 0 to 100, 0 is no effect, 100 is complete control
# Text: as §1
# [6] = system: soybean (Glycine max); assay: Test C preemergence; conditions: scale 0 to 100, 0 is no effect, 100 is complete control
# Text: as §1
# [7] = system: winter wheat (Triticum aestivum); assay: Test C preemergence; conditions: scale 0 to 100, 0 is no effect, 100 is complete control
# Text: as §1
# [8] = system: barnyardgrass (Echinochloa crus-galli); assay: Test C preemergence; conditions: scale 0 to 100, 0 is no effect, 100 is complete control
# Text: as §1
# [9] = system: Italian ryegrass (Lolium multiflorum); assay: Test C preemergence; conditions: scale 0 to 100, 0 is no effect, 100 is complete control
# Text: as §1
# [10] = system: large (Lg) crabgrass (Digitaria sanguinalis); assay: Test C preemergence; conditions: scale 0 to 100, 0 is no effect, 100 is complete control
# Text: as §1
# [11] = system: blackgrass (Alopecurus myosuroides); assay: Test C preemergence; conditions: scale 0 to 100, 0 is no effect, 100 is complete control
# Text: as §1
# [12] = system: galium (catchweed bedstraw, Galium aparine); assay: Test C preemergence; conditions: scale 0 to 100, 0 is no effect, 100 is complete control
# Text: as §1
# [13] = system: yellow nutsedge (Cyperus esculentus); assay: Test C preemergence; conditions: scale 0 to 100, 0 is no effect, 100 is complete control
# Text: as §1
# [14] = system: johnsongrass (Sorghum halepense); assay: Test C preemergence; conditions: scale 0 to 100, 0 is no effect, 100 is complete control
# Text: as §1
# [15] = system: waterhemp (common waterhemp, Amaranthus rudis); assay: Test C preemergence; conditions: scale 0 to 100, 0 is no effect, 100 is complete control
# Text: as §1
# [16] = system: giant foxtail (Setaria faberii); assay: Test C preemergence; conditions: scale 0 to 100, 0 is no effect, 100 is complete control
# Text: as §1
# [17] = system: corn (Zea mays); assay: Test C preemergence; conditions: scale 0 to 100, 0 is no effect, 100 is complete control
# Text: as §1
# [18] = system: ragweed (common ragweed, Ambrosia elatior); assay: Test C preemergence; conditions: scale 0 to 100, 0 is no effect, 100 is complete control
# Text: as §1
# [19] = system: lambsquarters (Chenopodium album); assay: Test C preemergence; conditions: scale 0 to 100, 0 is no effect, 100 is complete control
# Text: as §1
compound,measurement,setting,value
O=c1cccc(Oc2ncc(Cl)cn2)n1-c1ncc(Cl)cn1 [Compound 6],"Plant response rating, Rice",[1],0
same,"Plant response rating, Oilseed Rape",[2]; 16 g ai/ha,30
same,"Plant response rating, Oilseed Rape",[2]; 31 g ai/ha,90
same,"Plant response rating, Oilseed Rape",[2]; 62 g ai/ha,98
same,"Plant response rating, Oilseed Rape",[2]; 125 g ai/ha,98
same,"Plant response rating, Morningglory",[3]; 16 g ai/ha,5
same,"Plant response rating, Morningglory",[3]; 31 g ai/ha,5
same,"Plant response rating, Morningglory",[3]; 62 g ai/ha,20
same,"Plant response rating, Morningglory",[3]; 125 g ai/ha,55
same,"Plant response rating, Pigweed",[4]; 16 g ai/ha,55
same,"Plant response rating, Pigweed",[4]; 31 g ai/ha,75
same,"Plant response rating, Pigweed",[4]; 62 g ai/ha,90
same,"Plant response rating, Pigweed",[4]; 125 g ai/ha,100
same,"Plant response rating, Velvetleaf",[5]; 16 g ai/ha,10
same,"Plant response rating, Velvetleaf",[5]; 31 g ai/ha,25
same,"Plant response rating, Velvetleaf",[5]; 62 g ai/ha,40
same,"Plant response rating, Velvetleaf",[5]; 125 g ai/ha,80
same,"Plant response rating, Soybean",[6]; 16 g ai/ha,10
same,"Plant response rating, Soybean",[6]; 31 g ai/ha,20
same,"Plant response rating, Soybean",[6]; 125 g ai/ha,75
same,"Plant response rating, Wheat",[7]; 16 g ai/ha,0
same,"Plant response rating, Wheat",[7]; 31 g ai/ha,0
same,"Plant response rating, Wheat",[7]; 62 g ai/ha,5
same,"Plant response rating, Wheat",[7]; 125 g ai/ha,0
same,"Plant response rating, Barnyardgrass",[8]; 16 g ai/ha,0
same,"Plant response rating, Barnyardgrass",[8]; 31 g ai/ha,5
same,"Plant response rating, Barnyardgrass",[8]; 62 g ai/ha,10
same,"Plant response rating, Barnyardgrass",[8]; 125 g ai/ha,40
same,"Plant response rating, Ryegrass, Italian",[9]; 16 g ai/ha,0
same,"Plant response rating, Ryegrass, Italian",[9]; 31 g ai/ha,5
same,"Plant response rating, Ryegrass, Italian",[9]; 62 g ai/ha,5
same,"Plant response rating, Ryegrass, Italian",[9]; 125 g ai/ha,5
same,"Plant response rating, Crabgrass, Large",[10]; 16 g ai/ha,5
same,"Plant response rating, Crabgrass, Large",[10]; 31 g ai/ha,50
same,"Plant response rating, Crabgrass, Large",[10]; 62 g ai/ha,90
same,"Plant response rating, Crabgrass, Large",[10]; 125 g ai/ha,100
same,"Plant response rating, Blackgrass",[11]; 16 g ai/ha,0
same,"Plant response rating, Blackgrass",[11]; 31 g ai/ha,0
same,"Plant response rating, Blackgrass",[11]; 62 g ai/ha,5
same,"Plant response rating, Blackgrass",[11]; 125 g ai/ha,5
same,"Plant response rating, Galium",[12]; 16 g ai/ha,80
same,"Plant response rating, Galium",[12]; 31 g ai/ha,90
same,"Plant response rating, Galium",[12]; 62 g ai/ha,90
same,"Plant response rating, Galium",[12]; 125 g ai/ha,90
same,"Plant response rating, Nutsedge, Yellow",[13]; 16 g ai/ha,0
same,"Plant response rating, Nutsedge, Yellow",[13]; 31 g ai/ha,0
same,"Plant response rating, Nutsedge, Yellow",[13]; 62 g ai/ha,0
same,"Plant response rating, Nutsedge, Yellow",[13]; 125 g ai/ha,5
same,"Plant response rating, Johnsongrass",[14]; 16 g ai/ha,0
same,"Plant response rating, Johnsongrass",[14]; 31 g ai/ha,0
same,"Plant response rating, Johnsongrass",[14]; 62 g ai/ha,5
same,"Plant response rating, Johnsongrass",[14]; 125 g ai/ha,10
same,"Plant response rating, Waterhemp",[15]; 16 g ai/ha,75
same,"Plant response rating, Waterhemp",[15]; 31 g ai/ha,90
same,"Plant response rating, Waterhemp",[15]; 62 g ai/ha,100
same,"Plant response rating, Waterhemp",[15]; 125 g ai/ha,100
same,"Plant response rating, Foxtail, Giant",[16]; 16 g ai/ha,0
same,"Plant response rating, Foxtail, Giant",[16]; 31 g ai/ha,5
same,"Plant response rating, Foxtail, Giant",[16]; 62 g ai/ha,70
same,"Plant response rating, Foxtail, Giant",[16]; 125 g ai/ha,100
same,"Plant response rating, Corn",[17]; 16 g ai/ha,0
same,"Plant response rating, Corn",[17]; 31 g ai/ha,5
same,"Plant response rating, Corn",[17]; 62 g ai/ha,0
same,"Plant response rating, Corn",[17]; 125 g ai/ha,5
same,"Plant response rating, Ragweed",[18]; 16 g ai/ha,25
same,"Plant response rating, Ragweed",[18]; 31 g ai/ha,25
same,"Plant response rating, Ragweed",[18]; 62 g ai/ha,70
same,"Plant response rating, Ragweed",[18]; 125 g ai/ha,85
same,"Plant response rating, Lambsquarters",[19]; 16 g ai/ha,40
same,"Plant response rating, Lambsquarters",[19]; 31 g ai/ha,30
same,"Plant response rating, Lambsquarters",[19]; 62 g ai/ha,65
same,"Plant response rating, Lambsquarters",[19]; 125 g ai/ha,85
